This note sets out measurements from ChEMBL document CHEMBL5376009 (RSC Med Chem, 2024).

Type in all cases: functional, organism-based
Assay [1] has as its system Influenza A virus. As to the kind of experiment: Antiviral activity against influenza A virus A/WSN/1933 (H1N1) infected in MDCK cells harbouring TamiFlu sensitive neuraminidase 274H mutant assessed as reduction in cytopathic effect by DAPI staining based analysis. For orientation: Protection from cytopathic effect is a common read-out in antiviral testing.
Assay [2] has as its system Influenza A virus. In words: Antiviral activity against influenza A virus A/WSN/1933 (H1N1) infected in MDCK cells harbouring TamiFlu sensitive neuraminidase 274Y mutant assessed as reduction in cytopathic effect by DAPI staining based analysis.
The subject of assay [3] is Influenza A virus. As to the kind of experiment: Antiviral activity against influenza A virus A/WSN/1933 (H1N1) harboring Tamiflu- sensitive neuraminidase (274H) infected in MDCK cells assessed as reduction in cytopathic effect by fluorescence based analysis.
Assay [4] concerns Influenza A virus. In words: Antiviral activity against influenza A virus A/WSN/1933 (H1N1) harboring Tamiflu- sensitive neuraminidase (274Y) infected in MDCK cells assessed as reduction in cytopathic effect by fluorescence based analysis.
Assay [5] deals with Influenza A virus. In words: Antiviral activity against Oseltamivir-resistant Influenza A virus (H1N1) pdm09.

For the compound `Cc1onc(-c2ccccc2Cl)c1C(=O)N1CCN(c2ccc([N+](=O)[O-])cc2Cl)CC1`, the EC50 in the assay with Influenza A virus [1], with Influenza A virus [2] and in the assay on Influenza A virus [4] was 140 nM in each case. Further, the IC50 (in general, the midpoint of a concentration-inhibition curve) in the assay with Influenza A virus [3] was 70 nM.

`COc1cccc(OC)c1C(=O)/C=C/c1nc(C)c(C)nc1C`: the EC50 (commonly the concentration giving half of the maximal effect) in the assay with Influenza A virus [5] turned out to be 1040 nM.
